Experimental data reported in PMC6884555, “Simultaneous measurement of p53:Mdm2 and p53:Mdm4 protein-protein interactions in whole cells using fluorescence labelled foci” (Scientific Reports, 2019).
“Also recorded” adds a separate entry of the source. Read-outs that look alike come from different tables or passages of the source.

Tests used:
CHO-K1 cells [1] = assay: LDH release assay (CytoTox); type: cell-based, Chinese hamster; conditions: Cricetulus griseus
ASH-p53:AG-Mdm2 = biological target: T1, ASH-p53:AG-Mdm2 (Homo sapiens, UniProt Q00987); assay: Reversibility of FLUOPPI foci, transiently transfected ASH-p53:AG-Mdm2 CHO-K1 cells; type: cell-based
T1 construct: all eight possible combinations of p53 (1–70) and Mdm2 (1–119) were fused
Method: All 8 possible interactions pairs for the Mdm2:p53 PPI were then co-expressed in CHO-K1 cells and then analysed for foci formation 24 hours post-transfection (Fig. 1B). To eliminate the possibility of non-specific interactions between the expression constructs giving rise to foci formation, negative control experiments were performed between the AG fluorescent tagged constructs and the non-fluorescent oligomerizing tag (ASH) by itself (Fig. 1C).
24 hours prior to transfection CHO-K1 cells were seeded at a cell density of 800,000 cells respectively per well of a 6 well plate (ThermoFisher Scientific). […] After a 24 hour incubation, medium was removed and cells were washed with PBS saline. Transfected CHO-K1 cells were trypsinised and re-suspended in Nutrient Mixture F-12 Ham (Ham's F-12) media (Sigma-Aldrich) supplemented with 10% FCS. Cells were then spun down at 1000 rpm for 5 minutes at room temperature. Supernatant was then discarded and cells re-suspended to a density of 200,000 cells per ml in Ham's F-12 media supplemented with 10% FCS. 100 μl of the resulting cell suspension was added to the wells of a black clear bottom 96-well plate. After a 24 hours incubation, the cell medium was replaced with fresh Ham's F-12 medium containing the indicated concentration of small molecule or stapled peptide and the stated FCS concentration. Final concentration of DMSO was 1% (v/v).

CHO-K1 cells [2] = tested on: CHO-K1 cells
CHO-K1 cells [3] = assay: cells; conditions: Cricetulus griseus, read-out: Viability (IC50, µM)
p53:Mdm2 interaction = conditions: read-out: IC50, fluorescence polarization assay; cited from earlier work
Mdm4:p53 [4] = biological target: T2, Mdm4:p53 (Homo sapiens, UniProt O15151); assay: NanoBIT Mdm4:p53 PPI assay (transiently transfected CHO-K1 cells); type: cell-based; conditions: NanoBIT Mdm4:p53 (IC50, µM), small molecules, 10% (v/v) FCS
T2 sequence (O15151 1-490): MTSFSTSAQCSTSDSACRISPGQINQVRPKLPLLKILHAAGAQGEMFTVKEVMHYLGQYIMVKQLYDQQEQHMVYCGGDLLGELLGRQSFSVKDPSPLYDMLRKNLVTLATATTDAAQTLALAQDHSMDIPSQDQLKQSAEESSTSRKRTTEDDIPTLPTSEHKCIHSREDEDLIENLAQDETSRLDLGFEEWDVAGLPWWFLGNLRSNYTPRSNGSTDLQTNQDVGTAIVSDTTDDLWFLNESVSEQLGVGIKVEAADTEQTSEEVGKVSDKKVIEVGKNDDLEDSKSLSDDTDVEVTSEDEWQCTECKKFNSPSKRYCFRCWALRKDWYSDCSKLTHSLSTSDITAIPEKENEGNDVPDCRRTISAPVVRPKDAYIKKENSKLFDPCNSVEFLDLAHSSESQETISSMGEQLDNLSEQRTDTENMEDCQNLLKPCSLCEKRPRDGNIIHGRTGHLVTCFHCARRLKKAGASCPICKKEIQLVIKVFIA
Method: When LgBiT and SmBiT are optimally fused to two interacting proteins, in this case full-length Mdm2 and full-length p53, they will be brought sufficiently close to each other that they will reform the active luciferase and generate a luminescence signal.
For transient transfection experiments, 24 hours prior to transfection CHO cells were seeded at a cell density of 300,000 or 1200,000 cells respectively per well of a 6 well plate (ThermoFisher Scientific). […] After a 24 hour incubation, medium was removed and cells were washed with PBS saline. Transfected CHO-1 cells were trypsinised and re-suspended in Opti-MEM media with 0% FCS. […] 25 μl of a 20-fold dilution of Nano-Glo live cell substrate (Promega) in Nano-Glo dilution buffer (PROMEGA) was added to each well and the plate shaken for 1 min at 22 °C and luminescence assessed after additional 50 minutes as described previously[43]. All luminescence assay were carried out in triplicate and luciferase activity for each well was measured by Envision Multilabel plate reader (PerkinElmer). […]
Curve-fitting was carried out using Prism 4.0 (GraphPad). a was always constrained to the experimental value determined using the 1% DMSO (v/v) experimental control. After curve fitting the value determined for d was then verified to be in close agreement with the plateau of the titration.

Mdm4:p53 [5] = biological target: T3, Mdm4:p53 (Homo sapiens, UniProt O15151); assay: Bimodal FLUOPPI Mdm4:p53 PPI assay (pre-mixed stably transfected CHO-K1 cells, high-content imaging); type: cell-based; conditions: bimodal system; both treatment time points
T3 construct: the p53 (1–70) and Mdm4 (1–112) PPI was then cloned and fused to the FP and ASH tags
T3 sequence (O15151 1-112): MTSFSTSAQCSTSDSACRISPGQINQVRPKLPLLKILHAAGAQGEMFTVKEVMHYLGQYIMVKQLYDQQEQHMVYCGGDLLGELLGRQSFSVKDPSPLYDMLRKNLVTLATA
Method: Separate CHO-K1 lines stably expressing either Ash-p53:AG-Mdm2 or Ash-p53:MR-Mdm4 Fluoppi PPI pairs were established and maintained independently. To enable bimodal measurement both cell lines were pre-mixed in equal proportions and then used to seed 96 well plates for compound analysis. […] Plates were incubated overnight and cells were treated with PPI modulating drugs. […] Cells were also processed using a nuclear morphology filter. […] A minimum number of 500 foci were used to determine this value. Dose curves for each compound were then derived and used to calculate a corresponding IC50 value.
Two stable cell lines, 1A7-1 and 1B7-11 were mixed equally and seeded into poly-D-lysine black-wall 96-well plates (Corning) at a density of 20,000 cells/well and incubated for 24 hours at 37 °C in a 5% CO2 atmosphere. […] Green (AG), red (MR) and blue (Hoechst33342) or far-red (Draq5) fluorescence images were used to monitor p53-MDM2, p53-MDM4 and nuclei, respectively. […] To remove dead cells from analysis, only cells with a “nuclei roundness” score of more than 0.75 were counted. FLUOPPI values were calculated by dividing the total green or red fluorescence intensity of puncta by the number of AG-positive nuclei or MR-positive nuclei, respectively. […]

[6] = CHO-K1, 1 h, read-out: LDH Release (EC50, µM)

T1 sequence (Q00987 1-119, looked up): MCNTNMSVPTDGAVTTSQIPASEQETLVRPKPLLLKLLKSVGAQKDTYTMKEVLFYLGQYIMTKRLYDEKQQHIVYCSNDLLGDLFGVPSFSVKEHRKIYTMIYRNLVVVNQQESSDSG

Structure (SMILES) | EC50 (CHO-K1 cells [1]; [6]) | disruption of Mdm2:p53 fluorescent foci (in words) (ASH-p53:AG-Mdm2) | effect on cellular viability (in words) (CHO-K1 cells [2]) | concentration with significant effects on cellular viability (arbitrarily defined as >25%) (CHO-K1 cells [2]; Chinese hamster) | IC50 (CHO-K1 cells [3]; CHO-K1, 1 h) | IC50 (CHO-K1 cells [3]; CHO-K1, 24 h) | EC50 (CHO-K1 cells [1]; CHO-K1, 4 h, read-out: Normalized LDH release, value printed beside curve) | IC50 (p53:Mdm2 interaction) | IC50 (Mdm4:p53 [4]; 1 hour treatment) | IC50 (Mdm4:p53 [4]; 24 hour treatment) | inhibition of the p53:Mdm4 FLUOPPI PPI (in words) (Mdm4:p53 [5])
COc1ccc(C2=N[C@@H](c3ccc(Cl)cc3)[C@@H](c3ccc(Cl)cc3)N2C(=O)N2CCNC(=O)C2)c(OC(C)C)c1 [Nutlin 3A] | 35.7 ± 6.2 µM | disrupted; also recorded: disruption of the fluorescent foci | significant decreases in cellular viability | > 25 µM | 34 ± 7 µM | 28.5 µM |  |  |  |  | 
CC(C)(C)C[C@@H]1N[C@@H](C(=O)N[C@H]2CC[C@H](O)CC2)[C@H](c2cccc(Cl)c2F)[C@]12C(=O)Nc1cc(Cl)ccc12 [MI-773] | 30 ± 6.2 µM |  |  |  |  |  | 30.6 ± 6.2 µM | 0.88 nM | 10.2 ± 1.6 µM | 2.7 µM | negligible effect
